Data: patent publication US20210395210A1, “INHIBITION OF BACTERIAL CHAPERONIN SYSTEMS” (THE TRUSTEES OF INDIANA UNIVERSITY, priority 2018, published 2021)
Where two headings read alike, the source gives them in different places.

Experiments:
[1] = Kidney cell viability assay (Alamar Blue); settings: human
Method: (§1) HEK 293 cells were maintained in MEM medium (Corning Cellgro, 10-009 CV) supplemented with 10% FBS (Sigma, F2242). […] Cells at 80% confluence were harvested and diluted in growth medium, then 45 μL of the THLE-3 cells (1,500 cells/well) or HEK 293 cells (1,500 cells/well) were dispensed per well, and plates were sealed with “Breathe Easy” oxygen permeable membranes (Diversified Biotech) and incubated at 37° C., 5% CO2, for 24 h.

[2] = Liver cell viability assay (Alamar Blue); settings: human
Method: as §1

E. coli GroEL/ES = biological target: T1, E. coli GroEL/ES (Escherichia coli, UniProt P0A6F5); test: GroEL/ES-mediated dRho refolding assay; type: biochemical
T1 construct: made in house; host or cells: GroEL in E. coli DH5α; GroES in E. coli BL21 (DE3)
T1 sequence (P0A6F5 2-548): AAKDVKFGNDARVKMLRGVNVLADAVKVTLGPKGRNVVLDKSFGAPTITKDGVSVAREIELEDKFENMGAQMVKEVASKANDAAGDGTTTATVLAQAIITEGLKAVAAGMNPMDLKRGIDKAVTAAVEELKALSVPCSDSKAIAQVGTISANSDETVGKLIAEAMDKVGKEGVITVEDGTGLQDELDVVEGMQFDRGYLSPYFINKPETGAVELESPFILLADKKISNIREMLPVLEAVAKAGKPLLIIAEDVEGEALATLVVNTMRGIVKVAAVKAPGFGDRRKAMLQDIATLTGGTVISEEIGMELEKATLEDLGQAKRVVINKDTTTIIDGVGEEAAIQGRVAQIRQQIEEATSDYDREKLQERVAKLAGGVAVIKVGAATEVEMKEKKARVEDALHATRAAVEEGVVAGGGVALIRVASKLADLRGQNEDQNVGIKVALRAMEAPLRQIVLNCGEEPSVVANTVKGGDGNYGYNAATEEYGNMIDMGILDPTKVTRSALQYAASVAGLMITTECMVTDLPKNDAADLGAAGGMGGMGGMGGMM
Method: Reagent preparation: For this assay, five primary reagent stocks were prepared: 1) GroEUES-dRho binary complex stock; 2) ATP initiation stock; 3) thiocyanate enzymatic assay stock; 4) formaldehyde quench stock; 5) ferric nitrate reporter stock. Denatured rhodanese (dRho) was prepared by 3-fold dilution of rhodanese (Roche product #R1756, diluted to 10 mg/mL with H2O) with denaturant buffer (12 M Urea, 50 mM Tris-HCl, pH 7.4, and 10 mM DTT). Rhodanese was completely denatured by incubating at room temperature for 45 min. The binary complex solution was prepared by slowly adding the dRho stock to a stirring stock of concentrated GroEL in modified folding buffer (50 mM Tris-HCl, pH 7.4, 50 mM KCl, 10 mM MgCl2, 5 mM Na2S2O3, and 1 mM DTT). The solution was centrifuged at 16,000×g for 5 minutes, and the supernatant was collected and added to a solution of GroES in modified folding buffer to give final protein concentrations of 100 nM GroEL, 120 nM GroES, and 80 nM dRho. The binary complex stock was prepared immediately prior to use. For the ATP initiation stock, ATP solid was diluted into modified folding buffer to a final concentration of 2.0 mM. The thiocyanate enzymatic assay stock was prepared to contain 70 mM KH2PO4, 80 mM KCN, and 80 mM Na2S2O3 in water. The formaldehyde quench solution contained 30% formaldehyde in water. The ferric nitrate reporter stock contained 8.5% w/v Fe(NO3)3 and 11.3% v/v HNO3 in water.
Assay Protocol: First, 10 μL aliquots of the GroEL/ES-dRho complex stock were dispensed into clear, 384-well polystyrene plates. […] The chaperonin-mediated refolding cycle was initiated by addition of 10 μL of ATP stock (reagent concentrations during refolding cycle: 50 nM GroEL, 60 nM GroES, 40 nM dRho, 1 mM ATP, and compounds of 250 μM to 114 nM, 3-fold dilution series). After incubating for 45 minutes at 37° C. for the refolding cycle, 30 μL of the thiocyanate enzymatic assay stock was added and incubated for 60 min at R.T. for the refolded rhodenase enzymatic reporter reaction. The reporter reaction was quenched by adding 10 μL of the formaldehyde quench stock, and then 40 μL of the ferric nitrate reporter stock was added to quantify the amount of thiocyanate produced during the enzymatic reporter reaction, which is proportional to the amount of dRho refolded by GroEL/ES. After incubating at R.T. for 15 min, the absorbance by Fe(SCN)3 was measured at 460 nm using a Molecular Devices SpectraMax Plus384 microplate reader. A second set of baseline control plates were prepared analogously, but without GroEL/ES-dRho protein binary solution, to correct for possible interference from compound absorbance or turbidity. […] Results presented represent the averages of IC50 values obtained from at least quadriplicate (duplicate of duplicate) replicates.
After generating the compound library, we next employed a series of well-established biochemical assays to evaluate compound inhibitory effects against the GroEUES chaperonin system (See FIG. 6 and FIG. 7). We used E. coli GroEUES as the surrogate chaperonin system for refolding of the reporter enzymes malate dehydrogenase (MDH) and rhodanese (Rho). Briefly, binary complexes are formed between GroEL and denatured MDH or Rho, which are then refolded to their native states upon addition of ATP and the GroES co-chaperonin. Enzymatic activities of refolded native MDH or Rho act as coupled reporters of GroEUES refolding functions since in the presence of chaperonin inhibitors, no functional reporter enzymes are generated.

native Rho (rhodanese) = biological target: T2, native Rho (rhodanese) (Bos taurus, UniProt P00586); test: Counter-screen for inhibition of native rhodanese enzymatic activity; type: biochemical; settings: for log(IC50) Native Rho Reporter: log of IC50 (μM scale), with standard deviation; for IC50: read-out: Biochemical Assay IC50 Native Rho Reporter; for inhibition of native Rho enzymatic activity (in words): false-positive counter-screen
T2 construct: purchased Roche (so in the source) R1756
T2 sequence (P00586 1-297): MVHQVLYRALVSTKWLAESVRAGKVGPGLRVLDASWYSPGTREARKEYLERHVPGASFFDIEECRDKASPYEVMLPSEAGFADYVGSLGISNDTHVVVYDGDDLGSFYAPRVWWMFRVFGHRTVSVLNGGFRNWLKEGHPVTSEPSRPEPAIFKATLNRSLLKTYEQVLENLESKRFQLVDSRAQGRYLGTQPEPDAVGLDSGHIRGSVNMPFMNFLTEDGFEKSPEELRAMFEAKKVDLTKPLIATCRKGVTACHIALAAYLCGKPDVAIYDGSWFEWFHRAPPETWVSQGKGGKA
Method: Reagent Preparations & Assay Protocol: Reagents were identical to those used in the GroEUES-dRho refolding assay described above; however, the assay protocol differed in the sequence of compound addition to the wells. Compounds were pin-transferred after the 60 minute incubation for the refolding cycle, but prior to the addition of the thiocyanate enzymatic assay stock. Thus, the refolding reactions were allowed to proceed for 60 min at 37° C. in the absence of test compounds, but the enzymatic activity of the refolded rhodanese reporter enzyme was monitored in the presence of test compounds (inhibitor concentration range during the enzymatic reporter reaction is 100 µM to 46 nM-3-fold dilutions). IC50 values for the rhodenase reporter enzyme were determined as described above. Results presented represent the averages of IC50 values obtained from at least quadriplicate (duplicate of duplicate) replicates.

[3] = log of IC50 (μM scale), with standard deviation
[4] = read-out: Biochemical Assay IC50 GroEL/ES-dRho Refolding
[5] = log of IC50 (μM scale), with standard deviation, read-out: log(IC50) GroEL/ES-dRho Refolding (converted)

SMILES | log(IC50) GroEL/ES-dRho Refolding (E. coli GroEL/ES; [3]) | IC50 (E. coli GroEL/ES; [4]) | log(IC50) Native Rho Reporter (native Rho (rhodanese)) | IC50 (native Rho (rhodanese)) | IC50 (E. coli GroEL/ES) | also measured
CC1(C)S[C@@H]2[C@H](NC(=O)[C@H](N)c3ccccc3)C(=O)N2[C@H]1C(=O)O [Ampicillin, ampicillin, reference compound] | >2 | > 100 µM | >2 | > 100 µM | – | CC50 at 48 h ([1]; HEK 293 kidney cells): > 100 µM; CC50 at 48 h ([2]; THLE-3 liver cells): > 100 µM
Cc1cc(C(C#N)c2ccc(Cl)cc2)c(Cl)cc1NC(=O)c1cc(I)cc(I)c1O (centres unmarked) [Closantel, closantel, reference compound] | – | 1.5 µM | >2 | > 100 µM | 1.55 µM | CC50 at 48 h ([1]; HEK 293 kidney cells): 75.9 µM; CC50 at 48 h [2]: 52.5 µM
O=C(Nc1ccc(Sc2nc3ccccc3s2)c(Cl)c1)c1cc(Br)cc(Br)c1O [Compound 1, N-(4-(Benzo[d]thiazol-2-ylthio)-3-chlorophenyl)-3,5-dibromo-2-hydroxybenzamide] | – | 1.5 µM | – | > 100 µM | – | IC50 (E. coli GroEL/ES; [5]): 1.55 µM
O=C(Nc1ccc(Sc2nc3ccccc3s2)c(Cl)c1)c1cccc(Br)c1O [Compound 2, N-(4-(Benzo[d]thiazol-2-ylthio)-3-chlorophenyl)-3-bromo-2-hydroxybenzamide] | 0.58 ± 0.15 | 3.8 µM | – | – | – | inhibition of native Rho enzymatic activity (in words) (native Rho (rhodanese)): inactive against the reporter enzymes
O=C(Nc1ccc(Sc2nc3ccccc3s2)c(Cl)c1)c1cc(Br)ccc1O [Compound 3, N-(4-(Benzo[d]thiazol-2-ylthio)-3-chlorophenyl)-5-bromo-2-hydroxybenzamide] | 1.04 ± 0.38 | 11 µM | – | > 100 µM | – | inhibition of native Rho enzymatic activity (in words) (native Rho (rhodanese)): inactive against the reporter enzymes
O=C(Nc1ccc(Sc2nc3ccccc3s2)c(Cl)c1)c1ccccc1O [Compound 4, N-(4-(Benzo[d]thiazol-2-ylthio)-3-chlorophenyl)-2-hydroxybenzamide] | 1.80 ± 0.27 | 63 µM | – | > 100 µM | – | –
O=C(Nc1ccc(Sc2nc3ccccc3s2)cc1)c1cc(Br)cc(Br)c1O [Compound 5, N-(4-(Benzo[d]thiazol-2-ylthio)phenyl)-3,5-dibromo-2-hydroxybenzamide] | – | 1.3 µM | – | – | – | IC50 (E. coli GroEL/ES; [5]): 1.32 µM
O=C(Nc1ccc(Sc2nc3ccccc3s2)cc1)c1cccc(Br)c1O [Compound 6, N-(4-(Benzo[d]thiazol-2-ylthio)phenyl)-3-bromo-2-hydroxybenzamide] | – | 14 µM | – | – | – | IC50 (E. coli GroEL/ES; [5]): 13.8 µM; inhibition of native Rho enzymatic activity (in words) (native Rho (rhodanese)): inactive against the reporter enzymes
O=C(Nc1ccc(Sc2nc3ccccc3s2)cc1)c1cc(Br)ccc1O [Compound 7, N-(4-(Benzo[d]thiazol-2-ylthio)phenyl)-5-bromo-2-hydroxybenzamide] | 1.48 ± 0.11 | 30 µM | – | > 100 µM | – | inhibition of native Rho enzymatic activity (in words) (native Rho (rhodanese)): inactive against the reporter enzymes
O=C(Nc1ccc(Sc2nc3ccccc3s2)cc1)c1ccccc1O [Compound 8, N-(4-(Benzo[d]thiazol-2-ylthio)phenyl)-2-hydroxybenzamide] | 1.94 ± 0.23 | 87 µM | – | > 100 µM | – | –
O=C(Nc1cccc(Cl)c1)c1cc(Br)ccc1O [Compound 11, 5-Bromo-N-(3-chlorophenyl)-2-hydroxybenzamide] | >2 | – | >2 | > 100 µM | > 100 µM | –
O=C(Nc1cccc(Cl)c1)c1ccccc1O [Compound 12, N-(3-Chlorophenyl)-2-hydroxybenzamide] | >2 | – | >2 | > 100 µM | > 100 µM | –
O=C(Nc1ccccc1)c1cccc(Br)c1O [Compound 14, 3-Bromo-2-hydroxy-N-phenylbenzamide] | >2 | – | >2 | > 100 µM | > 100 µM | –
O=C(Nc1ccccc1)c1cc(Br)ccc1O [Compound 15, 5-Bromo-2-hydroxy-N-phenylbenzamide] | >2 | – | >2 | > 100 µM | > 100 µM | –
O=C(Nc1ccc(Sc2nc3ccccc3s2)c(Cl)c1)c1ccccc1 [Compound 19, N-(4-(Benzo[d]thiazol-2-ylthio)-3-chlorophenyl)benzamide] | – | – | – | > 100 µM | > 100 µM | –
O=C(Nc1ccc(Sc2nc3ccccc3s2)cc1)c1cccc(Br)c1 [Compound 21, N-(4-(Benzo[d]thiazol-2-ylthio)phenyl)-3-bromobenzamide] | – | – | – | > 100 µM | > 100 µM | –
O=C(Nc1cccc(Cl)c1)c1cc(Br)cc(Br)c1 [Compound 23, 3,5-Dibromo-N-(3-chlorophenyl)benzamide] | >2 | – | >2 | > 100 µM | > 100 µM | –
COc1c(Br)cccc1C(=O)Nc1ccc(Sc2nc3ccccc3s2)c(Cl)c1 [Compound 30, N-(4-(Benzo[d]thiazol-2-ylthio)-3-chlorophenyl)-3-bromo-2-methoxybenzamide] | – | – | – | – | > 100 µM | CC50 at 48 h [1]: > 100 µM; CC50 at 48 h [2]: > 100 µM
COc1c(Br)cccc1C(=O)Nc1ccc(Sc2nc3ccccc3s2)cc1 [Compound 34, N-(4-(Benzo[d]thiazol-2-ylthio)phenyl)-3-bromo-2-methoxybenzamide] | – | – | – | – | – | CC50 at 48 h [1]: > 100 µM; CC50 at 48 h [2]: > 100 µM
CO[C@H]1/C=C/O[C@@]2(C)Oc3c(C)c(O)c4c(O)c(c(/C=N/N5CCN(C)CC5)c(O)c4c3C2=O)NC(=O)/C(C)=C\C=C\[C@H](C)[C@H](O)[C@@H](C)[C@@H](O)[C@@H](C)[C@H](OC(C)=O)[C@@H]1C [Rifampicin, rifampicin, reference compound] | – | – | – | – | – | CC50 at 48 h [1]: > 100 µM; CC50 at 48 h [2]: 72.4 µM
